Source: patent US9006440B2, “Furopyridine derivatives” (Merck Patent GmbH, priority 2010, dated 2015)

What was measured:
Type in all cases: biochemical
[1] = biological target: T1, Syk (Homo sapiens, UniProt P43405); assay: Syk enzyme assay (SYK flash plate assay / Caliper mobility shift)
T1 construct: purchased BPS Bioscience, CA, USA
Experimental: The kinase assay is performed either as 384-well Flashplate assay (for e.g. Topcount measurement) or as 384-well Image-Flashplate assay (for LEADseeker measurement).
2.5 nM SYK, 400 nM Biotin-Aha-Aha-KEDPDYEWPSAKK
and 10 μM ATP (spiked with 0.3 μCi 33P-ATP/well) are incubated in a total volume of 50 μl (60 mM Hepes, 10 mM MgCl2, 1.2 mM Dithiothreitol, 0.02% Brij35, 0.1% BSA, pH 7.5) with or without test compound for 1 hours at 30° C. The reaction is stopped with 25 μl 200 mM EDTA. After 30 Min at 30° C. the liquid is removed and each well washed thrice with 100 μl 0.9% sodium chloride solution. Non-specific reaction is determined in presence of 0.1 μM Staurosporine. Radioactivity is measured with Topcount (when using Flashplates) or with LEADseeker (when using Image-Flashplates) respectively. Results (e.g. IC50-values) are calculated with program tools provided by the IT-department (e.g. Symyx Assay Explorer, Genedata Screener). Enzymatic Assays Using the Caliper LifeSciences Technology
(§1) The assays described here are performed on the Caliper Life Sciences LC3000 system This technology provides data on enzyme activity via measurement of the relative amounts of phosphorylated or unphosphorylated fluorescently labelled substrate peptide at the end of an enzymatic reaction. These different states of peptide are resolved by applying a potential difference across the sample. The presence of the charged phosphate group on the product (as opposed to the substrate) causes a different peptide mobility between the two peptides. This is visualized by excitation of the fluorescent label on the substrate and product peptides and represented as peaks within the analysis software.
(§2) In order to measure inhibitor activity of kinase inhibitors on this technology, a TTP Mosquito liquid handling instrument is used to place 0.25 ul of the appropriate concentration of inhibitor in 100% DMSO (for a dose response curve calculation) into each well of a 384-well plate. To this reaction components are added to a final volume of 25 ul. The table below indicates the sequences and concentrations for the assays described in this report. Standard components are 1 mM DTT (Sigma, D0632), 1 mM MgCl2 (Sigma, M1028), 100 mM HEPES pH 7.5 (Calbiochem, 391338), 0.015% Brij-35 (Sigma, B4184).
(§3) The reaction is incubated for 90 min at 25 C, and then stopped by the addition of 70 ul of Stop buffer (100 mM HEPES pH 7.5, 0.015% Brij-35, 10 mM EDTA (Sigma, E7889)).
(§4) The plate is read on a Caliper LC 3000 in an Off-Chip mobility shift assay format, on a 12-sipper chip. Unphosphorylated substrate and phosphorylated product peptide resolve as separate peaks allowing direct measurement of percentage of conversion of substrate to product. The percent conversion can be plotted against concentration of inhibitor to produce a sigmoidal dose response curve, from which an IC50 can be calculated using GeneData Condoseo or a similar product.

[2] = biological target: T2, KDR (Homo sapiens, UniProt P35968); assay: KDR enzymatic assay (Caliper LifeSciences technology)
T2 construct: purchased BPS Bioscience, CA, USA
T2 sequence (P35968 20-1356): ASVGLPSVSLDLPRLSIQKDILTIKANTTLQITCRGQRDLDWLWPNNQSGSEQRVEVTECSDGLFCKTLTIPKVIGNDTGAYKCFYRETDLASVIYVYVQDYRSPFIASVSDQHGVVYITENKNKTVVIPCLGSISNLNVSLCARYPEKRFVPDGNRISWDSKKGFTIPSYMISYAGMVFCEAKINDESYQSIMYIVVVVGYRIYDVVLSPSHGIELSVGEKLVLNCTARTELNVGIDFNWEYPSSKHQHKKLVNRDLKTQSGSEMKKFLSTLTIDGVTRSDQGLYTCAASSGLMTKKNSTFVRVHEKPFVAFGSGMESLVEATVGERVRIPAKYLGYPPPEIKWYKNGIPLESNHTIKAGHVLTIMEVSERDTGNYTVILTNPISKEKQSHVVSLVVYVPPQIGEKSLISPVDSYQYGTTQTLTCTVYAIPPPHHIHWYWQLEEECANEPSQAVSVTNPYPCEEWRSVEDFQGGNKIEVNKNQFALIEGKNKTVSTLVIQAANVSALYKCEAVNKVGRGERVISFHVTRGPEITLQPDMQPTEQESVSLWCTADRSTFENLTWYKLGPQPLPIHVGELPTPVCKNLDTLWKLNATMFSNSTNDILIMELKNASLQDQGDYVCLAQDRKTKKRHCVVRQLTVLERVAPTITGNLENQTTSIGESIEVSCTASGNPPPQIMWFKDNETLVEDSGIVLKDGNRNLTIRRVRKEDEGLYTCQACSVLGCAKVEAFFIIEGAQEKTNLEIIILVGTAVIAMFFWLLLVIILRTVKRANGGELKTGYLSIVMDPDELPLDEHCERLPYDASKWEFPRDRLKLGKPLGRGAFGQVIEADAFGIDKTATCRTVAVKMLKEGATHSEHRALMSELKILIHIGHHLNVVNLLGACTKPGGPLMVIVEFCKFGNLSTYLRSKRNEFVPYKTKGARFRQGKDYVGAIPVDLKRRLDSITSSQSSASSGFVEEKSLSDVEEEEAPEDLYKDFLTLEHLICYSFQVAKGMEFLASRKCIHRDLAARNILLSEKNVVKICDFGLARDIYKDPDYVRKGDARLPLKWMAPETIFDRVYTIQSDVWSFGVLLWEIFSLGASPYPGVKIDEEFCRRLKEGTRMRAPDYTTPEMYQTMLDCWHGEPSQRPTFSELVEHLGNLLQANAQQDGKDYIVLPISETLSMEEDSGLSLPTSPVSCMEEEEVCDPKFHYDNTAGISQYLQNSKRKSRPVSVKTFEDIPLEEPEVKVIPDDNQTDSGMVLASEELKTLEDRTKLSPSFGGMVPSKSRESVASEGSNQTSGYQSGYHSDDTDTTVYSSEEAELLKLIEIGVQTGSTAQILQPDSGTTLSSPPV
Experimental: as §1, §2, §3, §4

[3] = biological target: T3, SRC (Homo sapiens, UniProt P12931); assay: Src enzymatic assay (Caliper LifeSciences technology)
T3 construct: purchased Carna Bioscience, Kobe, Japan
T3 sequence (P12931 whole entry): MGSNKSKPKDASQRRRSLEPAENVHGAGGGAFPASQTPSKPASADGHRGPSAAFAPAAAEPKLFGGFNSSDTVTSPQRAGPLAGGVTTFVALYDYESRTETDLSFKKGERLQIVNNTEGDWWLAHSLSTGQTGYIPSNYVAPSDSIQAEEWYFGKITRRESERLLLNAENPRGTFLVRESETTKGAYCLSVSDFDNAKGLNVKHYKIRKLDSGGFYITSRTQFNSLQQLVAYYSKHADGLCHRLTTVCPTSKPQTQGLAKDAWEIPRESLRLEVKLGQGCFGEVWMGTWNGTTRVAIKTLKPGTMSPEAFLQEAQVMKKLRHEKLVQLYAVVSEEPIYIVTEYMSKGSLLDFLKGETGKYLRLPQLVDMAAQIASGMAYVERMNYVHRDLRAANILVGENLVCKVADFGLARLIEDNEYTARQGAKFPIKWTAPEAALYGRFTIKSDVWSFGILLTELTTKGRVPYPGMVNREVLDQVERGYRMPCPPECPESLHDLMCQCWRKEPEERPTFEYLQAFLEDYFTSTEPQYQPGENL
Experimental: as §1, §2, §3, §4

SMILES | IC50 [1] | IC50 [2] | IC50 [3]
COc1cc(-c2cc3nccc(-c4cccc5[nH]ccc45)c3o2)cc(OC)c1OC [Compound A20, 7-(1H-Indol-4-yl)-2-(3,4,5-trimethoxy-phenyl)-furo[3,2-b]pyridine] | < 0.3 µM | 3 to 50 µM | 0.3 to 3 µM
COc1cc(-c2cc3nccc(-c4cccc(OCCN)c4)c3o2)cc(OC)c1OC [Compound A38, 2-{3-[2-(3,4,5-Trimethoxy-phenyl)-furo[3,2-b]pyridin-7-yl]-phenoxy}-ethylamine] | < 0.3 µM | 0.3 to 3 µM | 3 to 50 µM
COc1cc(-c2cc3nccc(-c4cccc(CN)c4)c3o2)cc(OC)c1OC [Compound A51, 3-[2-(3,4,5-Trimethoxy-phenyl)-furo[3,2-b]pyridin-7-yl]-benzylamine] | < 0.3 µM | 0.3 to 3 µM | 3 to 50 µM
COc1cc(-c2cc3nccc(-c4cccc(CNC(C)=O)c4)c3o2)cc(OC)c1OC [Compound A52, N-[[3-[2-(3,4,5-trimethoxyphenyl)furo[3,2-b]pyridin-7-yl]phenyl]methyl]-acetamide] | < 0.3 µM | 3 to 50 µM | 3 to 50 µM
COc1cc(-c2cc3nccc(-c4cccc(C(=O)NC5CCNC5)c4)c3o2)cc(OC)c1OC (centres unmarked) [Compound A66, N-pyrrolidin-3-yl-3-[2-(3,4,5-trimethoxyphenyl)furo[3,2-b]pyridin-7-yl]benzamide] | < 0.3 µM |  | 0.3 to 3 µM
COc1cc(-c2cc3nccc(-c4cccc(C(=O)N5CCC(N)C5)c4)c3o2)cc(OC)c1OC (centres unmarked) [Compound A67, (3-aminopyrrolidin-1-yl)-[3-[2-(3,4,5-trimethoxyphenyl)furo[3,2-b]pyridin-7-yl]phenyl]methanone] | 0.3 to 3 µM |  | 0.3 to 3 µM
COc1cc(-c2cc3nccc(Nc4ccc(Sc5nccn5C)c(Cl)c4)c3o2)cc(OC)c1OC [Compound B16, [3-Chloro-4-(1-methyl-1H-imidazol-2-ylsulfanyl)-phenyl]-[2-(3,4,5-trimethoxy-phenyl)-furo[3,2-b]pyridin-7-yl]-amine] | 3 to 50 µM | 3 to 50 µM | 3 to 50 µM
Cc1c(Nc2ccnc3cc(-c4ccccc4)oc23)ccc2[nH]ccc12 [Compound B21, (4-Methyl-1H-indol-5-yl)-(2-phenyl-furo[3,2-b]pyridin-7-yl)-amine] | 0.3 to 3 µM | 0.3 to 3 µM | < 0.3 µM
COc1cc(-c2cc3nccc(-c4cc(OC)c(OC)c(OC)c4)c3o2)cc(OC)c1OC [Compound B24, 2,7-Bis-(3,4,5-trimethoxy-phenyl)-furo[3,2-b]pyridine] | < 0.3 µM | 3 to 50 µM | 3 to 50 µM
COc1ccc(-c2cc3nccc(-c4ccc(OC)c(OC)c4OC)c3o2)c(OC)c1OC [Compound B40, 2,7-Bis-(2,3,4-trimethoxy-phenyl)-furo[3,2-b]pyridine] | 0.3 to 3 µM | 0.3 to 3 µM | 3 to 50 µM
Cc1noc(C)c1-c1cc2nccc(-c3c(C)noc3C)c2o1 [Compound B41, 2,7-Bis-(3,5-dimethyl-isoxazol-4-yl)-furo[3,2-b]pyridine] | 3 to 50 µM | 3 to 50 µM | 3 to 50 µM
Cc1ccc(-c2cc3nccc(Nc4ccc5[nH]ccc5c4C)c3o2)cc1 [Compound B46, (4-Methyl-1H-indol-5-yl)-(2-p-tolyl-furo[3,2-b]pyridin-7-yl)-amine] | 3 to 50 µM | 0.3 to 3 µM | < 0.3 µM
COc1ccc(-c2cc3nccc(Nc4ccc5[nH]ccc5c4C)c3o2)cc1 [Compound B47, [2-(4-Methoxy-phenyl)-furo[3,2-b]pyridin-7-yl]-(4-methyl-1H-indol-5-yl)-amine] | 3 to 50 µM | 0.3 to 3 µM | 0.3 to 3 µM
Cc1c(Nc2ccnc3cc(-c4ccc5c(c4)OCO5)oc23)ccc2[nH]ccc12 [Compound B48] | 0.3 to 3 µM | 0.3 to 3 µM | < 0.3 µM
COc1c(C)cc(-c2cc3nccc(Nc4ccc5[nH]ccc5c4C)c3o2)cc1C [Compound B49, [2-(4-Methoxy-3,5-dimethyl-phenyl)-furo[3,2-b]pyridin-7-yl]-(4-methyl-1H-indol-5-yl)-amine] | 0.3 to 3 µM | 0.3 to 3 µM | < 0.3 µM
COc1ccc(-c2cc3nccc(Nc4ccc5[nH]ccc5c4C)c3o2)cc1C [Compound B50, [2-(4-Methoxy-3-methyl-phenyl)-furo[3,2-b]pyridin-7-yl]-(4-methyl-1H-indol-5-yl)-amine] | 0.3 to 3 µM | 0.3 to 3 µM | 0.3 to 3 µM

Further lines, results first:

IC50 [1] | IC50 [2] | IC50 [3] | SMILES
3 to 50 µM | 0.3 to 3 µM | 0.3 to 3 µM | Cc1cccc(-c2cc3nccc(Nc4ccc5[nH]ccc5c4C)c3o2)c1 [Compound B51, (4-Methyl-1H-indol-5-yl)-(2-m-tolyl-furo[3,2-b]pyridin-7-yl)-amine]
0.3 to 3 µM | 0.3 to 3 µM | 0.3 to 3 µM | Cc1cc(C)cc(-c2cc3nccc(Nc4ccc5[nH]ccc5c4C)c3o2)c1 [Compound B52, [2-(3,5-Dimethyl-phenyl)-furo[3,2-b]pyridin-7-yl]-(4-methyl-1H-indol-5-yl)-amine]
< 0.3 µM | < 0.3 µM | < 0.3 µM | COc1ccc(-c2cc3nccc(Nc4ccc5[nH]ccc5c4C)c3o2)cc1OC [Compound B53, [2-(3,4-Dimethoxy-phenyl)-furo[3,2-b]pyridin-7-yl]-(4-methyl-1H-indol-5-yl)-amine]
0.3 to 3 µM | 0.3 to 3 µM | < 0.3 µM | Cc1c(Nc2ccnc3cc(-c4ccc(N5CCOCC5)cc4)oc23)ccc2[nH]ccc12 [Compound B54]
0.3 to 3 µM | < 0.3 µM | < 0.3 µM | COc1ccc(-c2cc3nccc(Nc4ccc5[nH]ccc5c4C)c3o2)c(OC)c1OC [Compound B56]
0.3 to 3 µM | < 0.3 µM | < 0.3 µM | COc1cccc(-c2cc3nccc(Nc4ccc5[nH]ccc5c4C)c3o2)c1 [Compound B57, [2-(3-Methoxy-phenyl)-furo[3,2-b]pyridin-7-yl]-(4-methyl-1H-indol-5-yl)-amine]
0.3 to 3 µM | < 0.3 µM | < 0.3 µM | Cc1c(Nc2ccnc3cc(-c4ccc(OCCCN(C)C)cc4)oc23)ccc2[nH]ccc12 [Compound B58, {2-[4-(3-Dimethylamino-propoxy)-phenyl]-furo[3,2-b]pyridin-7-yl}-(4-methyl-1H-indo-5-yl)-amine]
0.3 to 3 µM | < 0.3 µM | < 0.3 µM | COc1cccc(-c2cc3nccc(Nc4ccc5[nH]ccc5c4C)c3o2)c1OC [Compound B59, [2-(2,3-Dimethoxy-phenyl)-furo[3,2-b]pyridin-7-yl]-(4-methyl-1H-indol-5-yl)-amine]
0.3 to 3 µM |  | 3 to 50 µM | COc1cc(-c2cc3nccc(-c4cccc(NC(C)=O)c4)c3o2)cc(OC)c1OC [Compound B72, N-(3-(2-(3,4,5-Trimethoxyphenyl)furo[3,2-b]pyridin-7-yl)phenyl)acetamide]
< 0.3 µM |  | 3 to 50 µM | COc1cc(-c2cc3nccc(-c4cccc(C(=O)NCC5CCCN5)c4)c3o2)cc(OC)c1OC (centres unmarked) [Compound C11]
< 0.3 µM | 3 to 50 µM |  | Cn1cc(-c2ccnc3cc(-c4ccc5cnn(C)c5c4)oc23)cn1 [Compound C98]
< 0.3 µM | 0.3 to 3 µM |  | COc1cc(-c2cc3nccc(-c4cccc(S(C)(=O)=O)c4)c3o2)cc(OC)c1OC [Compound C110]
< 0.3 µM |  | 3 to 50 µM | COc1cc(-c2cc3nccc(-c4c(F)cccc4OC)c3o2)cc(OC)c1OC [Compound C119]
< 0.3 µM |  | 0.3 to 3 µM | COc1ccc(OC)c(-c2cc3nccc(-c4cnn(C)c4)c3o2)c1 [Compound C140]
< 0.3 µM |  | 0.3 to 3 µM | COc1cc(-c2cc3nccc(-c4cc(O)cc(C(=O)NCCN)c4)c3o2)cc(OC)c1OC [Compound C149]
< 0.3 µM |  | < 0.3 µM | COc1cc(C(=O)N[C@@H]2CCCC[C@@H]2N)cc(-c2ccnc3cc(-c4cc(OC)c(OC)c(OC)c4)oc23)c1 [Compound C170]
